Legend:
HeLa [1] = test: Compound was tested at concentration of 280 nM for HeLa cell cycle inhibition; arrest of G2/M phase; type: functional, cell-based; settings: Homo sapiens
HeLa [2] = test: Compound was tested at concentration of 28 nM for HeLa cell cycle inhibition; arrest of G1 phase; type: functional, cell-based; settings: Homo sapiens

O=C1NC(=O)c2c1c1c3ccc(O)cc3[nH]c1c1[nH]c3cc(O)ccc3c21
Concentration (HeLa [1]): 100 ng/mL
Concentration (HeLa [2]): 10 ng/mL

Reference: ChEMBL document CHEMBL1136180, “Isolation of bisindole alkaloids that inhibit the cell cycle from Myxomycetes Arcyria ferruginea and Tubifera casparyi” (Bioorg Med Chem Lett, 2003)
